As usually defined, the Ki is the equilibrium dissociation constant of an inhibitor or competing ligand from its target. Read a high Ki as a looser hold on the target.

This is an account of results in ChEMBL document CHEMBL1125505, “Nucleosides and nucleotides. 112. 2-(1-Hexyn-1-yl)adenosine-5'-uronamides: a new entry of selective A2 adenosine receptor agonists with potent antihypertensive activity” (J Med Chem, 1992).

One experiment addresses T1, Adenosine receptor A1 (Rattus norvegicus, UniProt P25099).
T1 sequence (P25099 whole entry): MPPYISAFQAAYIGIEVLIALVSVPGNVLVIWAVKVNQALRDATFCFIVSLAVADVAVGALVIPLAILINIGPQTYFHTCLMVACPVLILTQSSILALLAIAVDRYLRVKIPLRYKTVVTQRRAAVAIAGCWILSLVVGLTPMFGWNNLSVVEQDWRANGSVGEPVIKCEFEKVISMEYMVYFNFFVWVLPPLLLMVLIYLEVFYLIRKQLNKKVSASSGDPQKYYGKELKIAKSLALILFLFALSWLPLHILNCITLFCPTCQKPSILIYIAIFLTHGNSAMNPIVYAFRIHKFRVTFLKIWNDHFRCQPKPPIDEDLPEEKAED
The experiment can be described thus: Binding affinity against adenosine A1 receptor from rat brain membranes using [3H]cyclohexyladenosine as radioligand.

Experiment [1] concerns Rattus norvegicus. Briefly: Dose producing 10% decrease in heart rate of anesthetized spontaneously hypertensive rats (SHR's). Format: functional.
In experiment [2] the test system is Rattus norvegicus. The experiment can be described thus: Dose producing 30% decrease in blood pressure of anesthetized spontaneously hypertensive rats (SHR's). Format: functional.
A further experiment deals with Adenosine A2 receptor (Rattus norvegicus, UniProt P29276+P30543). Format: protein assay.

In the case of `CCCCC#Cc1nc(N)c2ncn([C@@H]3O[C@H](CO)[C@@H](O)[C@H]3O)c2n1`, at Adenosine receptor A1, affinity was put at a Ki of 103 nM. The ED10 with Rattus norvegicus [1] amounted to 0.0704 mg/kg. This compound also returned an ED30 in the experiment on Rattus norvegicus [2] of 0.11 µg/kg.

On to `CCCCC#Cc1nc(N)c2ncn([C@@H]3O[C@H](CCl)[C@@H](O)[C@H]3O)c2n1`, for which the Ki on Adenosine receptor A1 was determined as 217 nM; at Adenosine A2 receptor, 5.2 nM. The compound also displayed an ED10 in the experiment on Rattus norvegicus [1] of over 0.003 mg/kg. In the experiment with Rattus norvegicus [2], the ED30 was over 3 µg/kg.

With `CCCCC#Cc1nc(N)c2ncn(C3O[C@H](C(=O)NCCC)[C@@H](O)[C@H]3O)c2n1` (some centres undefined), the Ki was 1810 nM on Adenosine receptor A1 and 44 nM at Adenosine A2 receptor. In the experiment with Rattus norvegicus [1], this compound gave an ED10 of over 0.1 mg/kg. Also, the ED30 with Rattus norvegicus [2] worked out at 2.88 µg/kg.

Regarding `CCCCC#Cc1nc(N)c2ncn([C@@H]3O[C@H](C(N)=O)[C@@H](O)[C@H]3O)c2n1`, the inhibition constant Ki at Adenosine receptor A1 came to 1270 nM; at Adenosine A2 receptor it was 19 nM. Also, the ED10 with Rattus norvegicus [1] is over 0.1 mg/kg. In the experiment on Rattus norvegicus [2], this compound registered an ED30 of 0.18 µg/kg.

With `CCCCC#Cc1nc(N)c2ncn(C3O[C@H](C/N=C(\S)NC)[C@@H](O)[C@H]3O)c2n1` (some centres undefined), the Ki at Adenosine receptor A1 was over 472 nM; on Adenosine A2 receptor, over 181 nM. In the experiment with Rattus norvegicus [1], this compound had an ED10 of over 0.1 mg/kg. This compound registered an ED30 with Rattus norvegicus [2] of 54.5 µg/kg.

Take `CCCCCCC#Cc1nc(N)c2ncn([C@@H]3O[C@H](CO)[C@@H](O)[C@H]3O)c2n1`: the figures for the Ki at Adenosine receptor A1 and at Adenosine A2 receptor were 117 nM and 6.1 nM, respectively. The compound further returned an ED10 in the experiment on Rattus norvegicus [1] of over 0.1 mg/kg. The ED30 in the experiment with Rattus norvegicus [2] was determined as 0.35 µg/kg.

`Nc1nc(Nc2ccccc2)nc2c1ncn2[C@@H]1O[C@H](CO)[C@@H](O)[C@H]1O`: the Ki on Adenosine A2 receptor is 83 nM. In the experiment with Rattus norvegicus [1], this compound displayed an ED10 of over 0.1 mg/kg. The same compound returned an ED30 with Rattus norvegicus [2] of 6.1 µg/kg.

`CCCCC#Cc1nc(N)c2ncn(C3O[C@H](CNC(C)=O)[C@@H](O)[C@H]3O)c2n1` (some centres undefined): the Ki at Adenosine receptor A1 was over 472 nM; at Adenosine A2 receptor, over 181 nM. Besides, the ED10 with Rattus norvegicus [1] is over 0.1 mg/kg. The compound further yielded an ED30 with Rattus norvegicus [2] of over 100 µg/kg.

In the case of `CCCCC#Cc1nc(N)c2ncn(C3O[C@H](CNC=O)[C@@H](O)[C@H]3O)c2n1` (some centres undefined), the Ki on Adenosine receptor A1 is over 472 nM; on Adenosine A2 receptor, over 181 nM. The compound also gave an ED10 in the experiment on Rattus norvegicus [1] of over 0.1 mg/kg. This compound had an ED30 in the experiment on Rattus norvegicus [2] of over 100 µg/kg.

In the case of `CCCCC#Cc1nc(N)c2ncn(C3O[C@H](C(=O)NC)[C@@H](O)[C@H]3O)c2n1` (some centres undefined), the results for the Ki at Adenosine receptor A1 and on Adenosine A2 receptor were 1780 nM and 11 nM, respectively. This compound returned an ED10 in the experiment with Rattus norvegicus [1] of over 0.1 mg/kg. Further, the ED30 with Rattus norvegicus [2] is 0.51 µg/kg.

`CCCCC#Cc1nc(N)c2ncn([C@@H]3O[C@H](C(=O)NCCCC)[C@@H](O)[C@H]3O)c2n1`: the Ki worked out at 1930 nM at Adenosine receptor A1 and 169 nM at Adenosine A2 receptor. Besides, in the experiment with Rattus norvegicus [1], the ED10 was over 0.1 mg/kg. This compound also returned an ED30 in the experiment on Rattus norvegicus [2] of 26.4 µg/kg.

Consider `CCNC(=O)[C@H]1O[C@@H](n2cnc3c(N)ncnc32)[C@H](O)[C@@H]1O` [NECA], for which the ED10 in the experiment with Rattus norvegicus [1] came to 0.00035 mg/kg. The compound further yielded an ED30 in the experiment with Rattus norvegicus [2] of 0.23 µg/kg.

In the case of `CCCCC#Cc1nc(N)c2ncn([C@@H]3O[C@H](C(=O)NC4CC4)[C@@H](O)[C@H]3O)c2n1`, the values for the Ki on Adenosine receptor A1 and on Adenosine A2 receptor were 136 nM and 2.6 nM, respectively. The ED10 with Rattus norvegicus [1] is 0.0407 mg/kg. Besides, the ED30 with Rattus norvegicus [2] is 0.17 µg/kg.

As for `COc1cc(OC)cc(C(CNc2ncnc3c2ncn3[C@@H]2O[C@H](CO)[C@@H](O)[C@H]2O)c2ccccc2C)c1` (some centres undefined), the Ki worked out at 64 nM on Adenosine receptor A1 and 4.6 nM at Adenosine A2 receptor. The compound further returned an ED10 in the experiment on Rattus norvegicus [1] of over 0.1 mg/kg. The compound further had an ED30 in the experiment on Rattus norvegicus [2] of 12.3 µg/kg.

Compound `CC(=O)O[C@]1(C(C)=O)CC[C@H]2[C@@H]3C=C(Cl)C4=CC(=O)[C@@H]5C[C@@H]5[C@]4(C)[C@H]3CC[C@@]21C` [CYPROTERONE ACETATE] had a Ki on Adenosine A2 receptor of 336 nM. In the experiment on Rattus norvegicus [1], this compound had an ED10 of 0.00017 mg/kg. Moreover, in the experiment with Rattus norvegicus [2], the ED30 was determined as 0.53 µg/kg.

For the compound `CCNC(=O)[C@H]1O[C@@H](n2cnc3c(N)nc(NCCc4ccc(CCC(=O)O)cc4)nc32)[C@H](O)[C@@H]1O` [CGS-21680], the ED10 with Rattus norvegicus [1] was over 0.1 mg/kg. This compound also yielded an ED30 in the experiment with Rattus norvegicus [2] of 0.83 µg/kg.

As to `CCCCC#Cc1nc(N)c2ncn(C3O[C@H](CNS(C)(=O)=O)[C@@H](O)[C@H]3O)c2n1` (some centres undefined), the figures for the Ki at Adenosine receptor A1 and at Adenosine A2 receptor were over 472 nM and over 181 nM, respectively. This compound gave an ED10 in the experiment on Rattus norvegicus [1] of over 0.1 mg/kg. In addition, the ED30 in the experiment on Rattus norvegicus [2] was over 100 µg/kg.

Turning to `CCCCC#Cc1nc(N)c2ncn(C3O[C@H](CNC(=O)NC)[C@@H](O)[C@H]3O)c2n1` (some centres undefined), the values for the Ki on Adenosine receptor A1 and at Adenosine A2 receptor were over 472 nM and over 181 nM, respectively. This compound gave an ED10 in the experiment with Rattus norvegicus [1] of over 0.1 mg/kg. Besides, the ED30 with Rattus norvegicus [2] is over 100 µg/kg.

On to `CCCCC#Cc1nc(N)c2ncn([C@@H]3O[C@H](C(=O)NCC)[C@@H](O)[C@H]3O)c2n1`, for which the results for the Ki on Adenosine receptor A1 and at Adenosine A2 receptor were 276 nM and 4.8 nM, respectively. This compound came in with an ED10 in the experiment on Rattus norvegicus [1] of over 0.1 mg/kg. In addition, in the experiment with Rattus norvegicus [2], the ED30 is 0.3 µg/kg.
